Experimental data published in the Deep4Chem optical property database.

Test: solvent given as SMILES
[1] = in O=P(c1ccccc1)(c1ccccc1)c1ccccc1Oc1ccccc1P(=O)(c1ccccc1)c1ccccc1

SMILES: COc1cc(-c2nc3sc4ccccc4c3s2)cc(OC)c1OC
- emission maximum (in CS(C)=O): 424 nm

SMILES: CC(=O)Nc1ccc(/C=C2\OC(=O)c3cc(N)ccc32)cc1
- emission maximum (in CC#N): 455.79 nm
- emission maximum (in CC(C)=O): 453.31 nm
- emission maximum (in CC(C)CO): 482.86 nm
- emission maximum (in CC(C)O): 483.09 nm
- emission maximum (in CCCO): 484.26 nm
- emission maximum (in CCO): 485.91 nm
- emission maximum (in CCOC(C)=O): 443.66 nm
- emission maximum (in CCOCC): 429.92 nm
- emission maximum (in CO): 490.2 nm

SMILES: F[Si-](F)(c1ccccc1)(c1ccccc1)c1cccc2ccccc12
- emission maximum (in C1CCOC1): 338 nm

SMILES: C=CC(=O)Oc1ccc2cc(C=C)c(=O)oc2c1
- emission maximum (in CC#N): 430 nm

SMILES: N#Cc1ccc(N(c2ccc(C#N)cc2)c2ccc3c4cccc5c(N(c6ccc(C#N)cc6)c6ccc(C#N)cc6)ccc(c6cccc2c63)c54)cc1
- emission maximum (in C1CCCCC1): 494 nm
- emission maximum (in C1CCOC1): 531 nm
- emission maximum (in CC#N): 535 nm
- emission maximum (in Cc1ccccc1): 513 nm
- emission maximum (in ClCCl): 522 nm

SMILES: O=C(/C=C/c1ccc(O)c(O)c1)O[C@H](Cc1ccc(O)c(O)c1)C(=O)O
- emission maximum (in C1CCOC1): 397 nm
- emission maximum (in CC#N): 413 nm
- emission maximum (in CCCC#N): 406 nm
- emission maximum (in CCO): 417 nm
- emission maximum (in CN(C)C=O): 420 nm
- emission maximum (in CO): 432 nm
- emission maximum (in CS(C)=O): 432 nm
- emission maximum (in ClCCl): 396 nm
- emission maximum (in O): 444 nm

SMILES: COc1cc(N(c2ccccc2)c2ccc(C=C(C#N)C#N)c(OC)c2)ccc1C=C(C#N)C#N
- emission maximum (in C1COCCO1): 520 nm
- emission maximum (in CC#N): 571 nm
- emission maximum (in CC(C)=O): 562 nm
- emission maximum (in CCOC(C)=O): 532 nm
- emission maximum (in CN(C)C=O): 576 nm
- emission maximum (in CO): 558 nm
- emission maximum (in Cc1ccccc1): 500 nm
- emission maximum (in ClC(Cl)Cl): 524 nm
- emission maximum (in ClCCl): 534 nm

SMILES: CCCCC(CC)CN1C(=O)C2=C(c3ccc(-c4ccc(C5=C6C(C)=CC(C)=[N+]6[B-](F)(F)n6c(C)cc(C)c65)cc4)s3)N(CC(CC)CCCC)C(=O)C2=C1c1ccc(-c2ccc(C3=C4C(C)=CC(C)=[N+]4[B-](F)(F)n4c(C)cc(C)c43)cc2)s1 (centres undefined)
- emission maximum (in Cc1ccccc1): 637 nm

SMILES: CC1=CC(/C=C/c2ccc(OCCCN=[N+]=[N-])cc2)=[N+]2C1=C(c1ccccc1)c1c(C)cc(C)n1[B-]2(F)F
- emission maximum (in CO): 578 nm

SMILES: COc1ccc2cc3c(C)cc(=O)oc3cc2c1
- emission maximum (in CC#N): 453 nm
- emission maximum (in CCO): 464 nm
- emission maximum (in CCOC(C)=O): 435 nm
- emission maximum (in CO): 469 nm
- emission maximum (in ClC(Cl)Cl): 443 nm
- emission maximum (in OCC(F)(F)F): 496 nm

SMILES: COc1c(-c2ccc(N(C)C)cc2)oc2ccccc2c1=O
- emission maximum (in C1CCCCC1): 413.89 nm
- emission maximum (in CC#N): 490.48 nm
- emission maximum (in CCOC(C)=O): 468.65 nm

SMILES: CCc1ccc(-n2c3ccccc3c3cc4c(cc32)c2ccccc2n4-c2ccc(CC)s2)s1
- emission maximum (in ClC(Cl)Cl): 405 nm

SMILES: CN(C)c1ccc(/C=C/c2ccc([N+](=O)[O-])c(O)c2)cc1
- emission maximum (in C1CCCCC1): 529 nm
- emission maximum (in C1COCCO1): 633 nm
- emission maximum (in CCCCCCC): 523 nm
- emission maximum (in Cc1ccccc1): 605 nm

SMILES: CCCCn1c2ccccc2c2ccc3c4cc(-c5ccc(OC)cc5)ccc4n(CCCC)c3c21
- emission maximum (in ClC(Cl)Cl): 409 nm

SMILES: CC1(C)c2ccccc2N(c2ccc3c(c2)Oc2ccccc2S3(=O)=O)c2ccccc21
- emission maximum (in Cc1ccccc1): 451 nm
- emission maximum [1]: 458 nm

SMILES: COc1cc2c(cc1-c1ccc(Cl)cc1)Cc1c3c(c4c(c1-2)-c1cc(OC)c(-c2ccc(Cl)cc2)cc1C4)C(=O)N(CCC(C)C)C3=O
- emission maximum (in C1CCOC1): 466 nm

SMILES: COc1ccc(-c2cc(/C=C/c3ccc(N(c4ccccc4)c4ccccc4)cc3)c(C#N)c(N3CCCCC3)c2)cc1
- emission maximum (in CS(C)=O): 520 nm

SMILES: CN(C)c1ccc(-c2cc[n+](C)cc2)s1
- emission maximum (in CCO): 507 nm

SMILES: Cc1cc(C2=Cc3cccc[n+]3[B-](F)(F)O2)ccc1N(C)C
- emission maximum (in ClC(Cl)Cl): 491 nm

SMILES: CC(C)[Si]1(C(C)C)c2cc(C=O)ccc2-c2ccc(N(C)C)cc21
- emission maximum (in C1CCCCC1): 414 nm
- emission maximum (in CC#N): 528 nm
- emission maximum (in CCO): 565 nm
- emission maximum (in CCOCC): 449 nm
- emission maximum (in CS(C)=O): 541 nm
- emission maximum (in ClCCl): 501 nm
- emission maximum (in c1ccccc1): 450 nm

SMILES: c1ccc2cc(-c3c4ccccc4c(-c4ccc(-n5c6ccccc6c6ccccc65)cc4)c4ccccc34)ccc2c1
- emission maximum (in ClCCl): 427 nm

SMILES: CC(C)(C)c1ccc2c(c1)c1cc(C(C)(C)C)ccc1n2-c1ccc(C#Cc2ccc(C#Cc3ccc(C=C(C#N)C#N)cc3)cc2)cc1
- emission maximum (in ClCCl): 474 nm

SMILES: CCC1(CC)c2ccccc2-c2c1c1c(c3c2C(CC)(CC)c2cc(-c4cccs4)ccc2-3)C(CC)(CC)c2cc(N(c3ccccc3)c3ccccc3)ccc2-1
- emission maximum (in C1CCOC1): 422 nm

SMILES: C(S/C=C/c1ccc(-c2ccc(/C=C/SC=C3CCCCC3)cc2)cc1)=C1CCCCC1
- emission maximum (in ClCCl): 433 nm

SMILES: CCCCC1(c2ccccc2)Nc2c(-c3ccc(N(c4ccccc4)c4ccccc4)cc3)ccc(-c3ccc(N(c4ccccc4)c4ccccc4)cc3)c2N=C1c1ccccc1 (centres undefined)
- emission maximum (in C1CCOC1): 554 nm
- emission maximum (in CC#N): 567 nm
- emission maximum (in CCCCCC): 521 nm
- emission maximum (in CN(C)C=O): 578 nm
- emission maximum (in Cc1ccccc1): 533 nm
- emission maximum (in ClC(Cl)Cl): 547 nm

SMILES: CCCCN1C(=O)c2cc(Oc3ccc(C(C)(C)C)cc3)c3c4c(Oc5ccc(C(C)(C)C)cc5)c(Oc5ccc(C(C)(C)C)cc5)c5c6c(cc(Oc7ccc(C(C)(C)C)cc7)c(c7c(Oc8ccc(C(C)(C)C)cc8)c(Oc8ccc(C(C)(C)C)cc8)c(c2c37)C1=O)c64)C(=O)N(CCCC)C5=O
- emission maximum (in ClC(Cl)Cl): 610 nm

SMILES: CC(C)c1cc(N(C)C)c(C#N)c2c1-c1cccc3cccc-2c13
- emission maximum (in O): 554 nm

SMILES: O=c1[nH]c(=O)c2nc3ccccc3nc2[nH]1
- emission maximum (in CC#N): 432 nm

SMILES: N#CSC1=CC2=C(c3c(Cl)cccc3Cl)c3cc(SC#N)c(NCc4ccccc4)n3[B-](F)(F)[N+]2=C1NCc1ccccc1
- emission maximum (in CC#N): 648 nm
- emission maximum (in CCCCCC): 655 nm
- emission maximum (in CCOC(C)=O): 654 nm
- emission maximum (in CO): 646 nm
- emission maximum (in ClCCl): 656 nm

SMILES: C(=C\c1cc(/C=C/c2ccc(N(c3ccccc3)c3ccccc3)cc2)nc(/C=C/c2ccc(N(c3ccccc3)c3ccccc3)cc2)n1)/c1ccc(N(c2ccccc2)c2ccccc2)cc1
- emission maximum (in C1CCOC1): 514 nm
- emission maximum (in CC#N): 589 nm
- emission maximum (in CC(C)=O): 555 nm
- emission maximum (in CCCCCCC): 460 nm
- emission maximum (in CS(C)=O): 586 nm
- emission maximum (in Cc1ccccc1): 479 nm
- emission maximum (in ClCCl): 544 nm

SMILES: O=Cc1ccc(C=C(c2ccccc2)c2ccccc2)cc1
- emission maximum (in C1CCOC1): 383 nm

SMILES: N#Cc1nn(-c2ccccc2)nc1N1CCCC1
- emission maximum (in CC#N): 423 nm

SMILES: COc1cc(-c2nc3c4cccnc4c4ncccc4c3[nH]2)c(OC)cc1/C=C/c1nc2ccccc2[nH]1
- emission maximum (in C1CCOC1): 443 nm
- emission maximum (in CC#N): 457 nm
- emission maximum (in CO): 461 nm
- emission maximum (in ClCCl): 452 nm

SMILES: C(=C\c1ccncn1)/c1ccc(N(c2ccccc2)c2ccc(/C=C/c3ccncn3)cc2)cc1
- emission maximum (in ClCCl): 555 nm

SMILES: COc1ccccc1-c1cc2c(o1)=CC1=Cc3cc4oc(-c5ccccc5OC)cc4n3[B-](F)(F)[N+]=21
- emission maximum (in ClC(Cl)Cl): 680 nm

SMILES: CN(C)c1ccc(-c2cc(-c3ccc4ccccc4c3)nc(-c3ccccc3)n2)cc1
- emission maximum (in C1CCCCC1): 422 nm
- emission maximum (in CS(C)=O): 599 nm
- emission maximum (in ClC(Cl)Cl): 510 nm

SMILES: O=S1(=O)c2ccccc2-c2c1c1ccccc1p2-c1ccccc1 (centres undefined)
- emission maximum (in C1CCCCC1): 436 nm
- emission maximum (in CC#N): 453 nm
- emission maximum (in CCO): 464 nm
- emission maximum (in ClCCl): 453 nm

SMILES: CCN(CC)c1ccc(/C=C/c2ccc(-c3ccc(/C=C/c4ccc(N(CC)CC)cc4)s3)s2)cc1
- emission maximum (in C1CCOC1): 544 nm
- emission maximum (in CC#N): 577 nm
- emission maximum (in CC(C)=O): 570 nm
- emission maximum (in CN(C)C=O): 586 nm
- emission maximum (in Cc1ccccc1): 530 nm

SMILES: O=C(c1ccccc1)c1cc2ccc1CCc1ccc(cc1-c1ccc(N(c3ccccc3)c3ccccc3)cc1)CC2
- emission maximum (in Cc1ccccc1): 492 nm
- emission maximum (in c1cc(-n2c3ccccc3c3ccccc32)cc(-n2c3ccccc3c3ccccc32)c1): 481.13 nm

SMILES: COC(=O)c1ccc2ccc3cccc4ccc1c2c34
- emission maximum (in C1CCOC1): 388 nm
- emission maximum (in CC#N): 389 nm
- emission maximum (in CCCCCC): 385 nm
- emission maximum (in CCO): 391 nm
- emission maximum (in CN(C)C=O): 391 nm
- emission maximum (in CO): 392 nm
- emission maximum (in Cc1ccccc1): 390 nm
- emission maximum (in ClCCl): 390 nm

SMILES: Nc1cccc2ncccc12
- emission maximum (in CC#N): 480 nm
- emission maximum (in O): 534 nm

SMILES: COc1ccc(N(c2ccc(OC)cc2)c2ccc(-c3ccc4nc5ccccc5c(=O)n4c3)cc2)cc1
- emission maximum (in ClCCl): 538 nm

SMILES: CCOC(=O)COc1ccc(C(c2c(C)[nH]c3ccccc23)c2c(C)[nH]c3ccccc23)cc1OC
- emission maximum (in C1CCCCC1): 329 nm
- emission maximum (in CC#N): 340 nm
- emission maximum (in CO): 345 nm
- emission maximum (in O): 350 nm

SMILES: Cc1cc(N2c3ccccc3C(C)(C)c3ccccc32)ccc1-c1cc(-c2ccc(N3c4ccccc4C(C)(C)c4ccccc43)cc2C)ncn1
- emission maximum (in Cc1ccccc1): 477 nm
- emission maximum [1]: 477 nm

SMILES: C/C=C/c1ccc(OC)cc1
- emission maximum (in CC#N): 330 nm
- emission maximum (in CCCCCC): 328 nm

SMILES: Cc1ccc(N(c2ccccc2)c2ccc3ccc4c(N(c5ccccc5)c5ccc(C)cc5)ccc5ccc2c3c54)cc1
- emission maximum (in ClCCl): 484 nm

SMILES: CC1CCC(=CS/C=C/c2ccc(-c3ccc(/C=C/SC=C4CCC(C)CC4)cc3)cc2)CC1 (centres undefined)
- emission maximum (in ClCCl): 432 nm

SMILES: COc1ccc2c(c1)CCC1=C(C#Cc3ccc(Cl)cc3)O[B-](F)(F)[O+]=C12
- emission maximum (in ClCCl): 472 nm

SMILES: CN1C(=CC2=C([S-])C(=Cc3sc4ccccc4[n+]3C)C2=O)C(C)(C)c2ccccc21
- emission maximum (in ClC(Cl)Cl): 676 nm

SMILES: c1ccc(C[n+]2cc3ccc4c[n+](Cc5ccccc5)cc5ccc(c2)c3c45)cc1
- emission maximum (in CC#N): 427 nm

SMILES: CCCc1cc2c(s1)-c1cc3c(cc1NB2c1ccccc1)-c1sc(CCC)cc1B(c1ccccc1)N3
- emission maximum (in ClCCl): 418 nm

SMILES: Cc1cn2cc(-c3ccc(-c4ccccc4)cc3)[n-][n+]2c1
- emission maximum (in ClCCl): 466 nm

SMILES: CCCCc1ccc(-n2c3c(c4c2c2c(n4-c4ccc(CCCC)cc4)-c4cc(F)ccc4NB2c2ccccc2)B(c2ccccc2)Nc2ccc(F)cc2-3)cc1
- emission maximum (in Cc1ccccc1): 406 nm
